Measurements taken from patent US20230413820A1, “HERBICIDAL N-HETEROARYL PYRAZOLE COMPOUNDS” (SYNGENTA CROP PROTECTION AG, priority 2020, published 2023).

What was measured:
Type in all cases: in vivo
[1] = system: Amaranthus retoflexus (AMARE); experiment: Post-emergence herbicide glasshouse test; details: 250 g/ha, sprayed after 8 days cultivation, evaluated after 13 days
Experimental: (§1) Seeds of a variety of test species (Abutilon theophrasti (ABUTH), Amaranthus retoflexus (AMARE), Echinochloa crus-galli (ECHCG), Ipomoea hederacea (IPOHE), Setaria faberi (SETFA)) are sown in standard soil in pots. After cultivation for one day (pre-emergence) or after 8 days cultivation (post-emergence) under controlled conditions in a glasshouse (at 24/16° C., day/night; 14 hours light; 65% humidity), the plants are sprayed with an aqueous spray solution derived from the formulation of the technical active ingredient in acetone/water (50:50) solution containing 0.5% Tween 20 (polyoxyethelyene sorbitan monolaurate, CAS RN 9005-64-5). Compounds are applied at 250 g/ha unless otherwise stated. The test plants are then grown in a glasshouse under controlled conditions in a glasshouse (at 24/16° C., day/night; 14 hours light; 65% humidity) and watered twice daily. After 13 days for pre- and post-emergence, the test is evaluated for the percentage damage caused to the plant. The biological activities are shown in the following table on a five-point scale (5=81-100%; 4=61-80%; 3=41-60%; 2=21-40%; 1=0-20%).

[2] = system: Echinochloa crus-galli (ECHCG); experiment: Post-emergence herbicide glasshouse test; details: 250 g/ha, sprayed after 8 days cultivation, evaluated after 13 days
Experimental: as §1

[3] = system: Ipomoea hederacea (IPOHE); experiment: Post-emergence herbicide glasshouse test; details: 250 g/ha, sprayed after 8 days cultivation, evaluated after 13 days
Experimental: as §1

Setaria faberi (SETFA) [4] = experiment: Post-emergence herbicide glasshouse test; details: 250 g/ha, sprayed after 8 days cultivation, evaluated after 13 days
Experimental: as §1

[5] = system: Amaranthus retoflexus (AMARE); experiment: Pre-emergence herbicide glasshouse test; details: 250 g/ha, sprayed after one day cultivation, evaluated after 13 days
Experimental: as §1

[6] = system: Echinochloa crus-galli (ECHCG); experiment: Pre-emergence herbicide glasshouse test; details: 250 g/ha, sprayed after one day cultivation, evaluated after 13 days
Experimental: as §1

[7] = system: Ipomoea hederacea (IPOHE); experiment: Pre-emergence herbicide glasshouse test; details: 250 g/ha, sprayed after one day cultivation, evaluated after 13 days
Experimental: as §1

Setaria faberi (SETFA) [8] = experiment: Pre-emergence herbicide glasshouse test; details: 250 g/ha, sprayed after one day cultivation, evaluated after 13 days
Experimental: as §1

[9] = system: Abutilon theophrasti (ABUTH); experiment: Post-emergence herbicide glasshouse test; details: 250 g/ha, sprayed after 8 days cultivation, evaluated after 13 days
Experimental: as §1

[10] = system: Abutilon theophrasti (ABUTH); experiment: Pre-emergence herbicide glasshouse test; details: 250 g/ha, sprayed after one day cultivation, evaluated after 13 days
Experimental: as §1

Row | SMILES | percentage damage caused to the plant, AMARE [1] | percentage damage caused to the plant, ECHCG [2] | percentage damage caused to the plant, IPOHE [3] | percentage damage caused to the plant, SETFA (Setaria faberi (SETFA) [4]) | percentage damage caused to the plant, AMARE [5] | percentage damage caused to the plant, ECHCG [6] | percentage damage caused to the plant, IPOHE [7] | percentage damage caused to the plant, SETFA (Setaria faberi (SETFA) [8]) | percentage damage caused to the plant, ABUTH [9] | percentage damage caused to the plant, ABUTH [10]
1 | FC(F)Oc1cnc(-n2nc(C(F)(F)F)cc2Oc2cccc(OC(F)F)n2)nc1 [Compound 1.028] | 5 (5=81-100%) | 5 (5=81-100%) | 3 (3=41-60%) | 5 (5=81-100%) | 5 (5=81-100%) | 5 (5=81-100%) | 1 (1=0-20%) | 5 (5=81-100%) | – | –
2 | N#Cc1cc(Cl)cnc1-n1nc(C(F)(F)F)cc1Oc1cccc(OC(F)F)n1 [Compound 1.030] | 3 (3=41-60%) | 1 (1=0-20%) | 1 (1=0-20%) | 2 (2=21-40%) | 2 (2=21-40%) | 1 (1=0-20%) | 1 (1=0-20%) | 1 (1=0-20%) | – | –
3 | FC(F)(F)c1cc(Oc2ccnc(C(F)(F)F)n2)n(-c2ncc(Cl)cn2)n1 [Compound 1.011] | 4 (4=61-80%) | 4 (4=61-80%) | 1 (1=0-20%) | 4 (4=61-80%) | 5 (5=81-100%) | 4 (4=61-80%) | 1 (1=0-20%) | 5 (5=81-100%) | – | –
4 | FC(F)(F)c1cccc(Oc2cc(C(F)(F)F)nn2-c2ncc(Cl)cn2)n1 [Compound 1.004] | 5 (5=81-100%) | 4 (4=61-80%) | 3 (3=41-60%) | 4 (4=61-80%) | 5 (5=81-100%) | 5 (5=81-100%) | 2 (2=21-40%) | 5 (5=81-100%) | 4 (4=61-80%) | 4 (4=61-80%)
5 | Fc1cnc(-n2nc(C(F)(F)F)cc2Oc2cccc(OC(F)F)n2)nc1 [Compound 1.005, 2-[5-[[6-(difluoromethoxy)-2-pyridyl]oxy]-3-(trifluoromethyl)pyrazol-1-yl]-5-fluoro-pyrimidine] | 5 (5=81-100%) | 4 (4=61-80%) | 4 (4=61-80%) | 4 (4=61-80%) | 5 (5=81-100%) | 5 (5=81-100%) | 5 (5=81-100%) | 5 (5=81-100%) | 5 (5=81-100%) | 4 (4=61-80%)
6 | FC(F)Oc1cccc(Oc2cc(C(F)(F)F)nn2-c2ncccn2)n1 [Compound 1.027] | 4 (4=61-80%) | 1 (1=0-20%) | 2 (2=21-40%) | 1 (1=0-20%) | 3 (3=41-60%) | 1 (1=0-20%) | 2 (2=21-40%) | 1 (1=0-20%) | – | –
7 | FC(F)c1cccc(Oc2cc(C(F)(F)F)nn2-c2ncc(Cl)cn2)n1 [Compound 1.003] | 5 (5=81-100%) | 4 (4=61-80%) | 4 (4=61-80%) | 4 (4=61-80%) | 5 (5=81-100%) | 4 (4=61-80%) | 2 (2=21-40%) | 2 (2=21-40%) | 3 (3=41-60%) | 1 (1=0-20%)
8 | COc1ccnc(-n2nc(C(F)(F)F)cc2Oc2cccc(OC(F)F)n2)n1 [Compound 1.026] | 3 (3=41-60%) | 1 (1=0-20%) | 1 (1=0-20%) | 1 (1=0-20%) | 4 (4=61-80%) | 1 (1=0-20%) | 1 (1=0-20%) | 1 (1=0-20%) | 1 (1=0-20%) | 2 (2=21-40%)
9 | FC(F)(F)c1cc(Oc2ccnc(Cl)n2)n(-c2ncc(Cl)cn2)n1 [Compound 1.012] | 2 (2=21-40%) | 1 (1=0-20%) | 1 (1=0-20%) | 1 (1=0-20%) | 3 (3=41-60%) | 1 (1=0-20%) | 1 (1=0-20%) | 2 (2=21-40%) | – | –
10 | FC(F)(F)c1cc(Oc2cccc(Cl)n2)n(-c2ncc(Cl)cn2)n1 [Compound 1.001] | 5 (5=81-100%) | 4 (4=61-80%) | 2 (2=21-40%) | 3 (3=41-60%) | 5 (5=81-100%) | 5 (5=81-100%) | 1 (1=0-20%) | 5 (5=81-100%) | 2 (2=21-40%) | 1 (1=0-20%)
11 | Fc1cc(Cl)cnc1-n1nc(C(F)(F)F)cc1Oc1cccc(OC(F)F)n1 [Compound 1.031] | 4 (4=61-80%) | 1 (1=0-20%) | 1 (1=0-20%) | 2 (2=21-40%) | – | 1 (1=0-20%) | 1 (1=0-20%) | 2 (2=21-40%) | – | –
12 | N#Cc1ccc(-n2nc(C(F)(F)F)cc2Oc2cccc(OC(F)F)n2)nc1 [Compound 1.029] | 5 (5=81-100%) | 1 (1=0-20%) | 3 (3=41-60%) | 1 (1=0-20%) | 4 (4=61-80%) | 2 (2=21-40%) | 1 (1=0-20%) | 2 (2=21-40%) | – | –
13 | FC(F)Oc1cccc(Oc2cc(C(F)(F)F)nn2-c2ncc(Cl)cn2)n1 [Compound 1.002] | 5 (5=81-100%) | 5 (5=81-100%) | 4 (4=61-80%) | 5 (5=81-100%) | 5 (5=81-100%) | 5 (5=81-100%) | 3 (3=41-60%) | 5 (5=81-100%) | 5 (5=81-100%) | 4 (4=61-80%)
14 | N#Cc1cccc(Oc2cc(C(F)(F)F)nn2-c2ncc(Cl)cn2)n1 [Compound 1.023] | 4 (4=61-80%) | 4 (4=61-80%) | 3 (3=41-60%) | 4 (4=61-80%) | 5 (5=81-100%) | 4 (4=61-80%) | 4 (4=61-80%) | 5 (5=81-100%) | – | –
15 | Fc1cnc(-n2nc(C(F)(F)F)cc2Oc2cccc(C(F)(F)F)n2)nc1 [Compound 1.024] | 2 (2=21-40%) | 1 (1=0-20%) | 1 (1=0-20%) | 1 (1=0-20%) | 5 (5=81-100%) | 1 (1=0-20%) | 1 (1=0-20%) | 1 (1=0-20%) | – | –
16 | Cc1nccc(Oc2cc(C(F)(F)F)nn2-c2ncc(Cl)cn2)n1 [Compound 1.015] | 2 (2=21-40%) | 1 (1=0-20%) | 1 (1=0-20%) | 1 (1=0-20%) | 3 (3=41-60%) | 1 (1=0-20%) | 1 (1=0-20%) | 2 (2=21-40%) | – | –
